The target of assay [1] is Nonstructural protein 1 (Influenza A virus, UniProt Q194T2). It counts as functional, Influenza A virus (A/California/07/2009(H1N1)).
For assay [2], the system named is Streptococcus. As to the kind of experiment: Group A Streptococcus viability loss, dose response, counter-screen for streptokinase expression inhibitor project, luminescence, BacTiterGlo (AID 1915).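 Also: potency for reduction of bacterial viability or growth.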 The format is functional, organism-based. On the technique in general: Counterscreens check selectivity or assay interference.
Assay [3] addresses T1, Replicative DNA helicase DnaB (Mycobacterium tuberculosis, UniProt P9WMR3).
T1 sequence (P9WMR3 whole entry): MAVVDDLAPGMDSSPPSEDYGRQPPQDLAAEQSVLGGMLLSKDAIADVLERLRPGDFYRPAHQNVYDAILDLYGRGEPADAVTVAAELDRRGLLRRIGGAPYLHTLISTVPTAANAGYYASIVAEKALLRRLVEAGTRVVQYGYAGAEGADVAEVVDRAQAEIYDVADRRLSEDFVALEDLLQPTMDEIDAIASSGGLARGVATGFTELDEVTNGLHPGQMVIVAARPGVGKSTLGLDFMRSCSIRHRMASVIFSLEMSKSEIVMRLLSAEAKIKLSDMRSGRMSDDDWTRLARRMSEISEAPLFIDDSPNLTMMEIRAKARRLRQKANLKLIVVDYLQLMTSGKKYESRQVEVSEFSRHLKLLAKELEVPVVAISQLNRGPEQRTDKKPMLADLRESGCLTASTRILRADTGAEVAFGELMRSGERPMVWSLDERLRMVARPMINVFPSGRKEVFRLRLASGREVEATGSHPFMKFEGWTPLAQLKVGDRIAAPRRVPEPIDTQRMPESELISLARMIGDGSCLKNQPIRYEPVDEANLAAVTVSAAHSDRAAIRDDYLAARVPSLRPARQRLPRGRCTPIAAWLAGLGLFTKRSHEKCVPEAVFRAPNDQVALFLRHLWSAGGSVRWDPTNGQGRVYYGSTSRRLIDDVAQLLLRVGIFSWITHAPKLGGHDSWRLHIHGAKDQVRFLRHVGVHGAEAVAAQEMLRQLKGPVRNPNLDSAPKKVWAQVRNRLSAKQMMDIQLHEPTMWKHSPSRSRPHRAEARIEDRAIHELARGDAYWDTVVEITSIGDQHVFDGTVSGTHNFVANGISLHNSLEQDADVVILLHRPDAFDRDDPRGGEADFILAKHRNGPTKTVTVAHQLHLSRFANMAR
As to the kind of experiment: DnaB intein splicing inhibitors, dose response, biochemical, cell-free fluorescence (AID 449749). The format is functional.

In assay [4] the target is T2, Protein RecA (Mycobacterium tuberculosis, UniProt P9WHJ3).
T2 sequence (P9WHJ3 whole entry): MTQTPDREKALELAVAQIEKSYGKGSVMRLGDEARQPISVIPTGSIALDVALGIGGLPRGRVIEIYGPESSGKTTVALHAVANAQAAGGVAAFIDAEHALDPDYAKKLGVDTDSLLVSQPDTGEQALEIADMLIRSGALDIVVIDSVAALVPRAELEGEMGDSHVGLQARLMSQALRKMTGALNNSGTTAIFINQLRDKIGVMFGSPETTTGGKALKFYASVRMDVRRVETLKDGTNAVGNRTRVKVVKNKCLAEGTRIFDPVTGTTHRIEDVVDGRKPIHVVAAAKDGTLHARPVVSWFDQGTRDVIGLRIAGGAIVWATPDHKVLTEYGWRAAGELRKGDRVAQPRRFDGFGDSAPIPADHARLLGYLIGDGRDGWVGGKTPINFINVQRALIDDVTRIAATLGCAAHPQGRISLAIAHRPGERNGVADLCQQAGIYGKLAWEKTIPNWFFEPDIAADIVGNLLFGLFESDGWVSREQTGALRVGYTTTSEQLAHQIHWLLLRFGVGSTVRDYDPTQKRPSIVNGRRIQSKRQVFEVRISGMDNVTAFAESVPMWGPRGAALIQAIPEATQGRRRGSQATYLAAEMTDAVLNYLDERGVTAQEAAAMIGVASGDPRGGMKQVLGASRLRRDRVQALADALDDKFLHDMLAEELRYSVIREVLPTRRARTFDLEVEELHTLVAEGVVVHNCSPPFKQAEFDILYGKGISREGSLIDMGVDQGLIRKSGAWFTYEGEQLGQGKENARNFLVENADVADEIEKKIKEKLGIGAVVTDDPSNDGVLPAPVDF
As to the kind of experiment: Fluorescence Cell-Free Homogeneous Dose Retest to Identify Inhibitors of RecA-Intein Splicing Activity. [Related pubchem assays (depositor defined):AID2097, AID2223, AID489010, AID492950]. It counts as functional.

Assay [5] concerns the target E3 ubiquitin-protein ligase Mdm2 (Homo sapiens, UniProt Q00987). As to the kind of experiment: enhancers of MDM2-luciferase reporter signal, concentration-effect titration, project on inhibitors of MDM2 ubiquitin ligase, cellular assay, luminescent readout, 384-well plate format (AID 1394).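 Also: MDM2 E3 inhibitors raise luminescence so EC50 is for signal enhancement.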 It counts as functional.
Assay [6] can be described thus: cells. The format is functional, cell-based.
Assay [7] concerns the target Photoreceptor-specific nuclear receptor (Homo sapiens, UniProt Q9Y5X4). The format is functional, cell-based.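 Also: CHO-S cells with Gal4-NCOR and VP16-NR2E3 two-hybrid luciferase reporter.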
Assay [8] is described as follows: microbe, parasite or virus in culture. The settings on record: Mycobacterium tuberculosis. The format is functional.
The nature of assay [9]: cells. It counts as functional, cell-based. The source holds these as a separate data set.
Assay [10] deals with Streptococcus sp. 'group A'. As to the kind of experiment: growth inhibition of control SK(-) GAS strain, dose response, counter-screen for streptokinase expression inhibitor project, luminescence, kanamycin, BacTiterGlo, confirmation (AID 1900). It counts as functional, organism-based.
Assay [11] has as its target T3, Streptokinase A (Streptococcus pyogenes serotype M1, UniProt P10520).
T3 sequence (P10520 whole entry): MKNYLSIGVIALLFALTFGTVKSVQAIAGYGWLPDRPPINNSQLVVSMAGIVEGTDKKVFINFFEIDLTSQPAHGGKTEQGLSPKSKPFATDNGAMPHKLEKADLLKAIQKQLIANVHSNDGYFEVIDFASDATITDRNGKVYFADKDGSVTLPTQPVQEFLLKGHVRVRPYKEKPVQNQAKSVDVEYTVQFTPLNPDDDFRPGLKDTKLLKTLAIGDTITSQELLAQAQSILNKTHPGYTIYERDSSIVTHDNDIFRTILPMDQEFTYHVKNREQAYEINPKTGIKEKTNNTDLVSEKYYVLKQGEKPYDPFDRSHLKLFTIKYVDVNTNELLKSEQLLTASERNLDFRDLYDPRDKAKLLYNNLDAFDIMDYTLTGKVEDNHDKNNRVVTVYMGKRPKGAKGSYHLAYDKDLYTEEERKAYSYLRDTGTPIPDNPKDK
As to the kind of experiment: S. pyogenes streptokinase expression inhibitors, potency, dose response, plasminogen activation absorbance, OD405 (AID 1914).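 Also: secreted streptokinase activity via plasminogen activation per viability signal from cell pellet.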 The format is functional, Streptococcus pyogenes M1 GAS.

Assay [12] addresses T4, Heat shock factor protein 1 (Mus musculus, UniProt P38532).
T4 sequence (P38532 whole entry): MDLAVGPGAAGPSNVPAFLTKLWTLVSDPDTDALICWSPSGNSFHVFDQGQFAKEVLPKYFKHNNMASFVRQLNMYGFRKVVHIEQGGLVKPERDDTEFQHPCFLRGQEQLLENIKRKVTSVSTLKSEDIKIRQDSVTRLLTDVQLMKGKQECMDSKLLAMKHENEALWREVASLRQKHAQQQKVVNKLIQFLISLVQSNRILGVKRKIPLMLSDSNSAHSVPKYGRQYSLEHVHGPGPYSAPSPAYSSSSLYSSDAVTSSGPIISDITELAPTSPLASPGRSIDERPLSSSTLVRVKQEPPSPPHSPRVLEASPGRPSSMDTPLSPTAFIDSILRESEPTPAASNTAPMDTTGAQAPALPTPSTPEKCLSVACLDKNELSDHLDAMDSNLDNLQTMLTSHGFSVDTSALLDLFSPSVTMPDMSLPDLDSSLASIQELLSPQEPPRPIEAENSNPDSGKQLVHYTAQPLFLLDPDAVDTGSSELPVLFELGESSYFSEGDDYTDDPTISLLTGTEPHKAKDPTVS
In words: HSF1 potentiators in luciferase reporter cells, confirmation, cell-based, NIH3T3, luminescence, dose retest (AID 435004).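 Also: stress induced by proteasome inhibitor MG132 added 30 min after compound; luciferase reporter driven by HSF1 response element in NIH3T3 cells; actives raise luminescence as potentiators of the MG132 stress response.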 It counts as functional. Background: In a reporter assay the amount or activity of a reporter protein is the signal.

The subject of assay [13] is INS1. As to the kind of experiment: beta cell apoptosis inhibitors, cytokine rescue, dose response, luminescence, retest (AID 449756).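 Also: cell death triggered by IL-1 beta plus TNF-alpha plus IFN-gamma mixture; protective hits raise ATP signal compared with cytokine alone wells.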 It counts as functional, cell-based. The settings on record: Rattus norvegicus.
Assay [14] has as its target T5, Corticotropin-releasing factor receptor 2/Corticotropin-releasing factor-binding protein (Homo sapiens, UniProt P24387+Q13324).
T5 sequence (Q13324 whole entry): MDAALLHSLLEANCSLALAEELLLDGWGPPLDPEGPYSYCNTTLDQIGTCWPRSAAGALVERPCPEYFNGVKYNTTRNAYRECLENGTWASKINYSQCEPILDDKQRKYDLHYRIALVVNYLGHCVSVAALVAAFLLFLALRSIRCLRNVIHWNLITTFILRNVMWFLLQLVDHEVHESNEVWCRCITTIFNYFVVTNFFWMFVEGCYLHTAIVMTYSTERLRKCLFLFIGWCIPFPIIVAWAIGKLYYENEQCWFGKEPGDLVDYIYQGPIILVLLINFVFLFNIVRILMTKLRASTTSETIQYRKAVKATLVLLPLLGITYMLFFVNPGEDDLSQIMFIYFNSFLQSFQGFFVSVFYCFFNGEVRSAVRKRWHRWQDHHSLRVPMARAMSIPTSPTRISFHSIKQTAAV
T5 sequence (P24387 whole entry): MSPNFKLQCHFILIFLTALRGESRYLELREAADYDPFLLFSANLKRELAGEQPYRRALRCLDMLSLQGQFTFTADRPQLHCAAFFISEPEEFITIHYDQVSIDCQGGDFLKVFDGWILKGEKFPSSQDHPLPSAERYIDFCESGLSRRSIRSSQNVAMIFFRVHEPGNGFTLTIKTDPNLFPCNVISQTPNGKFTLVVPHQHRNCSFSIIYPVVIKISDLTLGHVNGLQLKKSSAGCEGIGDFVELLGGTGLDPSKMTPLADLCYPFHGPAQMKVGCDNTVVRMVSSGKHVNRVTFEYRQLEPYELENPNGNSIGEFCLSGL
As to the kind of experiment: Dose Response confirmation of uHTS hits for small molecule antagonists of the CRF-binding protein and CRF-R2 receptor complex. It counts as functional. The note with it: read-out: IC50_Mean.

The target of assay [15] is T5, Corticotropin-releasing factor receptor 2/Corticotropin-releasing factor-binding protein. In words: activators of CRF receptor 2 with binding protein – uHTS hits, confirmation (AID 602473). The format is functional. The note with it: read-out: EC50_Mean.
Assay [16] is described as follows: CRF-BP/CRF-R2 complex antagonists, dose response, cell-based, uHTS hits, 384-well (AID 651639). It counts as functional, Homo sapiens. The note with it: read-out: IC50_Mean.
Assay [17] concerns the target Hepatocyte nuclear factor 4-alpha (Homo sapiens, UniProt P41235). It counts as functional, cell-based.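 Also: biochemical luminescence-based dose-response counterscreen measuring inhibition of HNF4 dimerization, run alongside a screen for blockers of ABHD5–perilipin-5 interaction; split luciferase complementation of HNF4 fusion proteins in cell lysate measuring dimerization.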
Assay [18] has as its target T6, Sentrin-specific protease 1 (Homo sapiens, UniProt Q9P0U3). As to the kind of experiment: Dose response confirmation of small molecule inhibitors of the catalytic domain of the SUMO protease, SENP1 in a FRET assay. It counts as functional. The note with it: read-out: IC50_Mean.
The nature of assay [19]: cytotoxicity in HEK-293T cells, dose response, cytotoxicity control for BCR NF-kB inhibitor project, luminescence, B-cell screen hits (AID 489021).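 Also: HEK-293T cells carrying an NF-kB luciferase reporter; cells exposed to compound for about 14 hours before viability readout.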 It counts as functional, cell-based.
Assay [20] concerns the target T6, Sentrin-specific protease 1. As to the kind of experiment: potency of human SENP1 inhibitors, dose response, biochemical, kinetic FRET (AID 651697). The settings on record: read-out: IC50_Mean. The format is functional.
The target of assay [21] is T7, ATP-dependent translocase ABCB1 (Homo sapiens, UniProt P08183). In words: ABCG2 efflux pump inhibitor potency, dose response, Ig-MXP3 cells, JC-1, flow cytometry, set 2 (AID 504566).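 Also: flow cytometry median green fluorescence of retained JC-1 dye; potency of efflux pump inhibition measured as rising substrate retention.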 The format is functional. The settings on record: read-out: EC50_MICROM_.
The target in assay [22] is T7, ATP-dependent translocase ABCB1. In words: ABCB1 efflux inhibitor potency, dose response, Jurkat-DNR cells, JC-1, flow cytometry, set 2 (AID 504569).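 Also: potency of pump inhibitors that raise cellular JC-1 green fluorescence up to the nicardipine level.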 The settings on record: read-out: EC50_MICROM_. The format is functional.

Each structure is given as a SMILES string. Calls of active or inactive are those of the source. A value given as a limit tells only on which side of the number the result lay.

T6 sequence (Q9P0U3 whole entry, the tested form may be a part): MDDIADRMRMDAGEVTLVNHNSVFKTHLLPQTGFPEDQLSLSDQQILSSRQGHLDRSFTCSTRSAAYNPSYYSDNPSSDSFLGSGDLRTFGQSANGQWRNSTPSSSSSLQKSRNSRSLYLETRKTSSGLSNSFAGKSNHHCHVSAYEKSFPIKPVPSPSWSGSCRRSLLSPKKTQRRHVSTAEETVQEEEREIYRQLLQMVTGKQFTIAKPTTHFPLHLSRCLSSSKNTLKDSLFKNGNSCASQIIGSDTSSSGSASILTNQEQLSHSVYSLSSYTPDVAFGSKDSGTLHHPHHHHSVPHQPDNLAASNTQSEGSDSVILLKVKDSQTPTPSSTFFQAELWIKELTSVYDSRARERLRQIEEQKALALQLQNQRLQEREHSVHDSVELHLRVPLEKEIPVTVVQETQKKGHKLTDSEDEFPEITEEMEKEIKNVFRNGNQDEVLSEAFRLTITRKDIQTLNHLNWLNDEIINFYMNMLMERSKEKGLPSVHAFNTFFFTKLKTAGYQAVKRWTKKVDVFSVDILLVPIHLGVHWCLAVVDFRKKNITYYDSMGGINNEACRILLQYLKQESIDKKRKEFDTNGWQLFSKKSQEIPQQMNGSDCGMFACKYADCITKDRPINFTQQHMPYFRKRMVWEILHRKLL
T7 sequence (P08183 whole entry): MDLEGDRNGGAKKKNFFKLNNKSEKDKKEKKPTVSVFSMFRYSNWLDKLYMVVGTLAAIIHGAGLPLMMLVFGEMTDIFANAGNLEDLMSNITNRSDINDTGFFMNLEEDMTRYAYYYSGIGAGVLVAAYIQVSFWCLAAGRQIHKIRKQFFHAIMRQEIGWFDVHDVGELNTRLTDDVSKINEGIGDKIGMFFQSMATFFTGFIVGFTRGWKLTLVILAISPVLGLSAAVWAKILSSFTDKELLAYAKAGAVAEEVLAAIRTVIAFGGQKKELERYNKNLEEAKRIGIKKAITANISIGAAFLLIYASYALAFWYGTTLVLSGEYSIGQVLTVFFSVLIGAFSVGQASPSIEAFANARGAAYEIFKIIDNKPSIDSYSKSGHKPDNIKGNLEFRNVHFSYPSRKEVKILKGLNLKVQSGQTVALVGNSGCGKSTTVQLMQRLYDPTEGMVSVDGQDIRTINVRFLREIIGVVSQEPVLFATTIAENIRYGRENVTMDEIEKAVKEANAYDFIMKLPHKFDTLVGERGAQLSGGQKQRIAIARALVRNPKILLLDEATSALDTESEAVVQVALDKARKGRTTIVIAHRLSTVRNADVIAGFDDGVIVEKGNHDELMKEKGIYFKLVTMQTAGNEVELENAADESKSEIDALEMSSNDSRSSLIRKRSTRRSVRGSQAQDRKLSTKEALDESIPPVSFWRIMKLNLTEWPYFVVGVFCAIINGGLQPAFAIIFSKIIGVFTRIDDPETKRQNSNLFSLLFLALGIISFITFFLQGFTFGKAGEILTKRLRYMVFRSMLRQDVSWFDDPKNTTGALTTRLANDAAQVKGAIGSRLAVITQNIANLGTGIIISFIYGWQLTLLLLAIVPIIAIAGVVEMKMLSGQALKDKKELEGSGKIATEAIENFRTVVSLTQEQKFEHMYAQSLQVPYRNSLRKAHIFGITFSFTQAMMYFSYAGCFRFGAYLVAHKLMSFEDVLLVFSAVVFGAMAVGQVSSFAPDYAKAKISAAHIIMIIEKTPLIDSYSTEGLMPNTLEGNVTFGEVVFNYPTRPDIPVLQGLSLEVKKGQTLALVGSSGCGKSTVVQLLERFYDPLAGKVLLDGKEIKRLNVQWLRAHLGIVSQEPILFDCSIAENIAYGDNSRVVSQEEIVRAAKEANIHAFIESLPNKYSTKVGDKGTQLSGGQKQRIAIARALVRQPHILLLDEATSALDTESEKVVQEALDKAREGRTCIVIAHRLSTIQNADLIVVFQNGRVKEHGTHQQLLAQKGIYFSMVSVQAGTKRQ
Sequence of Nonstructural protein 1 (Q194T2 whole entry): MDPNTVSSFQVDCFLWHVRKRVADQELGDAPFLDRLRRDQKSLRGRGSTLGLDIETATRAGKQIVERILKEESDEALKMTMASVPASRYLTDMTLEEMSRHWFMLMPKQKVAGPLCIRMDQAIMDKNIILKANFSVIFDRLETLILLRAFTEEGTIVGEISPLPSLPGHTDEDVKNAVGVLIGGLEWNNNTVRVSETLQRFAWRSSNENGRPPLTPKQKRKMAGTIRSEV
Sequence of E3 ubiquitin-protein ligase Mdm2 (Q00987 whole entry): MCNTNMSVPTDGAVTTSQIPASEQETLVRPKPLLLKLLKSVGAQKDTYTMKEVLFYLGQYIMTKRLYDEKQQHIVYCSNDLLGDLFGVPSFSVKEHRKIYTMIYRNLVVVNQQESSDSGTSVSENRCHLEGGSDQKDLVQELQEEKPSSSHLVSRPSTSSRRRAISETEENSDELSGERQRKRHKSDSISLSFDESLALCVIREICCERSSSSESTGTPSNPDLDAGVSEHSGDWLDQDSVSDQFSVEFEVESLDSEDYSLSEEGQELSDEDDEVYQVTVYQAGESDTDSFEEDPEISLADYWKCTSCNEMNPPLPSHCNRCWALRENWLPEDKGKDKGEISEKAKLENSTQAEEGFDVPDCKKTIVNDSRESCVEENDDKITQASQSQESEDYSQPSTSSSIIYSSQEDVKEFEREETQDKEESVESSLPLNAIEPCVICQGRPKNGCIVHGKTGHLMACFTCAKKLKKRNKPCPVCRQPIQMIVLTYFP
Sequence of Photoreceptor-specific nuclear receptor (Q9Y5X4 whole entry, the tested form may be a part): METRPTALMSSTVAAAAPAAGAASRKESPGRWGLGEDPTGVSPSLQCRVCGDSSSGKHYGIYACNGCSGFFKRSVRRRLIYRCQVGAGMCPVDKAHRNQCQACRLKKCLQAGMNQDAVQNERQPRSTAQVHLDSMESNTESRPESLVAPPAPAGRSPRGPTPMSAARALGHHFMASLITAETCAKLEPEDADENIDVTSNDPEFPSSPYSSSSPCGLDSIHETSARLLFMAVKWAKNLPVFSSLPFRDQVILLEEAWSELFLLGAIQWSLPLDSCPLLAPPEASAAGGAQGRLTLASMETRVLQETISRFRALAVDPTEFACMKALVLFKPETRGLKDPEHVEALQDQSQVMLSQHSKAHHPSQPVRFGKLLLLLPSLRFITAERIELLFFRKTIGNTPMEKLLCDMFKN
Sequence of Hepatocyte nuclear factor 4-alpha (P41235 whole entry, the tested form may be a part): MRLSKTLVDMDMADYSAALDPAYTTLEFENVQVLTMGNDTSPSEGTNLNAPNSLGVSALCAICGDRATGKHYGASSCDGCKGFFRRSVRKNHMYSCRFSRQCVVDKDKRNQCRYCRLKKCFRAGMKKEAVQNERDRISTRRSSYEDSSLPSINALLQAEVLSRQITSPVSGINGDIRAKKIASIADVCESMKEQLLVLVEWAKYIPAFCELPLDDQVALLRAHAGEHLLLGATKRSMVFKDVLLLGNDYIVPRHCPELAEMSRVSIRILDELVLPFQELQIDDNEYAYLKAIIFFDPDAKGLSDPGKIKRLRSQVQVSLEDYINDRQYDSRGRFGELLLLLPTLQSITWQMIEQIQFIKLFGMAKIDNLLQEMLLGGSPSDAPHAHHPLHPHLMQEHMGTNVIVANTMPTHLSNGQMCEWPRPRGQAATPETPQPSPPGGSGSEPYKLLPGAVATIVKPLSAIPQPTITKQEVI

On to `Oc1[nH]c2ccccc2c1N=NC(=S)N1CCOCC1`, for which the IC50 in assay [1] is 4.88 µM (active); in assay [7], 4.03 µM (active). Besides, the EC50 was 5.64 µM (active) in assay [2]; 12.9 µM (active) in [4]; 2.24 µM (not active) in [5]; > 350 µM (not active) in assay [6]; 7.37 µM (active) in assay [9]; 0.271 µM (active) in [10]. In addition, the EC50 in [11] was > 150 µM (not active); in assay [12], 3.31 µM (inconclusive). Also, the AC50 (commonly the concentration at which the activity in the assay is half-maximal) in assay [3] is > 380 µM (inactive); in [13] it was 2.25 µM (active). For the same compound, in assay [8], the CC50 was 5.25 µM (active).
On to `COCCN=C(S)N1CCc2cc(OC)c(OC)cc2C1COc1cc(C)cc(C)c1` (configuration not stated), for which the IC50 in assay [14] is 32.1 µM (active); in assay [16], > 20 µM (inactive). For the same compound, the EC50 in assay [15] was > 53 µM (inactive).
Consider `Cc1cccc(C)c1NC(=O)C(c1ccc(-c2ccccc2)cc1)n1c(=O)c(-c2ccco2)nc2ccccc21` (configuration not stated), for which the IC50 in assay [17] is 1.34 µM (active).
Consider `N#CC1=C(N)Oc2cc(Nc3ccccc3)ccc2C1c1ccncc1` (configuration not stated), for which the IC50 in assay [18] is 30.5 µM (inactive); in assay [19], 48.3 µM (inactive); in [20], 41.9 µM (inactive).
With `Cc1ccc(-c2cc3nc(C)cc(N4CCN(C(=O)c5ccoc5)CC4)n3n2)cc1`, the EC50 is 4.95 µM (active) in assay [21] and 5.56 µM (active) in assay [22].

These data come from ChEMBL document CHEMBL1201862, “PubChem BioAssay data set” (2004).
